Reference: ChEMBL document CHEMBL4020850, “Discovery of LSZ102, a Potent, Orally Bioavailable Selective Estrogen Receptor Degrader (SERD) for the Treatment of Estrogen Receptor Positive Breast Cancer” (J Med Chem, 2018)
Values after ≈ are worked out from the molar mass of the structure shown. Active and inactive are the calls of the source. The rule behind the calls is not given here.

Experiments:
[1] = Clearance in C57BL/6 mouse at 1 mg/kg, iv or 3 mg/kg, po; format: ADME, organism-based; settings: in vivo
[2] = Clearance in Sprague-Dawley rat at 1 mg/kg, iv or 3 mg/kg, po; format: ADME, organism-based; settings: in vivo
[3] = Oral bioavailability in Sprague-Dawley rat at 3 mg/kg; format: ADME, organism-based; settings: in vivo
[4] = Cmax in C57BL/6 mouse at 3 mg/kg, po; format: ADME, organism-based; design: dose 3 mg/kg, route oral; settings: in vivo
[5] = Oral bioavailability in C57BL/6 mouse at 3 mg/kg; format: ADME, organism-based; settings: in vivo
MCF7 [6] = test: Antiproliferative activity against human MCF7 cells after 6 days in presence of estradiol by CellTiter-Glo assay; settings: MCF7, 144 h
MCF7 [7] = test: Antitumor activity against human MCF7 cells xenografted in NOD SCID gamma mouse assessed as change in tumor volume at 20 mg/kg, po qd for 48 days post tumor implantation measured 7 hrs post last dose; format: functional
[8] = AUC in NOD SCID gamma mouse xenografted with human MCF7 cells at 20 mg/kg, po qd for 19 days; format: ADME, organism-based; settings: in vivo
[9] = Cmax in NOD SCID gamma mouse xenografted with human MCF7 cells at 20 mg/kg, po qd for 19 days; format: ADME, organism-based; design: dose 20 mg/kg, route oral; settings: in vivo
Mus musculus [10] = test: Downregulation of progesterone receptor mRNA level in NOD SCID gamma mouse xenografted with human MCF7 cells at 20 mg/kg, po qd for 48 days post tumor implantation measured 7 hrs post last dose by RT-PCR method; format: functional, organism-based
Mus musculus [11] = test: In vivo inhibition of ER protein level in NOD SCID gamma mouse xenografted with human MCF7 cells at 20 mg/kg, po qd for 48 days post tumor implantation measured 7 hrs post last dose by Western blot method relative to control; format: functional
Rattus norvegicus [12] = test: Dose normalized Cmax in Sprague-Dawley rat at 3 mg/kg, po; format: ADME, organism-based; settings: in vivo
Rattus norvegicus [13] = test: Dose normalized AUC (0 to t) in Sprague-Dawley rat at 1 mg/kg, iv; format: ADME, organism-based; settings: in vivo
Rattus norvegicus [14] = test: Dose normalized AUC (0 to t) in Sprague-Dawley rat at 3 mg/kg, po; format: ADME, organism-based; settings: in vivo
[15] = Volume of distribution at steady state in Sprague-Dawley rat at 1 mg/kg, iv or 3 mg/kg, po; format: ADME, organism-based; settings: in vivo, read-out: Vdss
[16] = Elimination half life in Sprague-Dawley rat at 1 mg/kg, iv or 3 mg/kg, po; format: ADME, organism-based; settings: in vivo, read-out: beta t1/2 (converted)
Rattus norvegicus [17] = test: Dose normalized Cmax in Wistar Han rat at 30 mg/kg, po; format: ADME, organism-based; settings: in vivo
Rattus norvegicus [18] = test: Dose normalized AUC (0 to t) in Wistar Han rat at 30 mg/kg, po; format: ADME, organism-based; settings: in vivo
Rattus norvegicus [19] = test: Dose normalized Cmax in Wistar Han rat at 100 mg/kg, po; format: ADME, organism-based; settings: in vivo
Rattus norvegicus [20] = test: Dose normalized AUC (0 to t) in Wistar Han rat at 100 mg/kg, po; format: ADME, organism-based; settings: in vivo
Rattus norvegicus [21] = test: Dose normalized Cmax in Wistar Han rat at 300 mg/kg, po; format: ADME, organism-based; settings: in vivo
Rattus norvegicus [22] = test: Dose normalized AUC (0 to t) in Wistar Han rat at 300 mg/kg, po; format: ADME, organism-based; settings: in vivo
Canis familiaris [23] = test: Dose normalized Cmax in Beagle dog at 30 mg/kg, po; format: ADME, organism-based, Canis lupus familiaris; settings: in vivo
[24] = Oral bioavailability in Beagle dog at 10 mg/kg; format: ADME, organism-based, Canis lupus familiaris; settings: in vivo
[25] = Elimination half life in Beagle dog at 0.3 mg/kg, iv or 10 mg/kg, po; format: ADME, organism-based, Canis lupus familiaris; settings: in vivo, read-out: beta t1/2 (converted)
[26] = Clearance in Beagle dog at 0.3 mg/kg, iv or 10 mg/kg, po; format: ADME, organism-based, Canis lupus familiaris; settings: in vivo
Canis familiaris [27] = test: Dose normalized AUC (0 to t) in Beagle dog at 10 mg/kg, po; format: ADME, organism-based, Canis lupus familiaris; settings: in vivo
[28] = Volume of distribution at steady state in Beagle dog at 0.3 mg/kg, iv or 10 mg/kg, po; format: ADME, organism-based, Canis lupus familiaris; settings: in vivo, read-out: Vdss
Canis familiaris [29] = test: Dose normalized AUC (0 to t) in Beagle dog at 0.3 mg/kg, iv; format: ADME, organism-based, Canis lupus familiaris; settings: in vivo
Canis familiaris [30] = test: Clearance in Beagle dog at 0.3 mg/kg, iv or 10 mg/kg, po relative to hepatic blood flow; format: ADME, organism-based, Canis lupus familiaris; settings: in vivo
Canis familiaris [31] = test: Dose normalized Cmax in Beagle dog at 10 mg/kg, po; format: ADME, organism-based, Canis lupus familiaris; settings: in vivo
Canis familiaris [32] = test: Dose normalized AUC (0 to t) in Beagle dog at 30 mg/kg, po; format: ADME, organism-based, Canis lupus familiaris; settings: in vivo
[33] = AUC in Beagle dog at 10 mg/kg, po; format: ADME, organism-based, Canis lupus familiaris; settings: in vivo
[34] = Equilibrium solubility in pH 6.8 buffer at 1 mM after 16 hrs by HPLC based shake flask method; format: physicochemical
MCF7 [35] = test: Antitumor activity against human MCF7 cells xenografted in NOD SCID gamma mouse assessed as change in tumor volume at 60 mg/kg, po 5 days per week for 48 days post tumor implantation measured 7 hrs post last dose; format: functional
Mus musculus [36] = test: Downregulation of progesterone receptor mRNA level in NOD SCID gamma mouse xenografted with human MCF7 cells at 60 mg/kg, po 5 days per week for 48 days post tumor implantation measured 7 hrs post last dose by RT-PCR method; format: functional, organism-based
Estrogen receptor = target: T1, Estrogen receptor (Homo sapiens, UniProt P03372); test: Induction of selective estrogen receptor alpha degradation in human MCF7 cells harboring TK-ERE-Luc assessed as reduction in estradiol-induced transcriptional activity after 24 hrs by luciferase reporter gene assay; format: cell-based
T1 sequence (P03372 whole entry): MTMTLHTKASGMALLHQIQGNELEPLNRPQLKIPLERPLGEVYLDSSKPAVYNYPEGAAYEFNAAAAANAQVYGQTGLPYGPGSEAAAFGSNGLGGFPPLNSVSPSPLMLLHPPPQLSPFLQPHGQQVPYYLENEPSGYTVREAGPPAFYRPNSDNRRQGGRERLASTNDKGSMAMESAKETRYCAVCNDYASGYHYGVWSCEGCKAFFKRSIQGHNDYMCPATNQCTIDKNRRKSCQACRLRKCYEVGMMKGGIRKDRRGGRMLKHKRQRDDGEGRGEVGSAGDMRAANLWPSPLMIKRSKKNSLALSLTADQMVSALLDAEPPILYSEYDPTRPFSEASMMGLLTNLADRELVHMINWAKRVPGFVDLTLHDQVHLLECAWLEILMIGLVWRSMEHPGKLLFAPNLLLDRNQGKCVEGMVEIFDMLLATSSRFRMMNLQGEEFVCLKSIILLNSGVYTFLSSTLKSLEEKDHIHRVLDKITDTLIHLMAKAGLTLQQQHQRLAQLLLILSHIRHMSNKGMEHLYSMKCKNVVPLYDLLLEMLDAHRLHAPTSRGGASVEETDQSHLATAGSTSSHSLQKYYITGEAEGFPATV

[37] = Cmax in Sprague-Dawley rat at 3 mg/kg, po; format: ADME, organism-based; design: dose 3 mg/kg, route oral; settings: in vivo
MCF7 [38] = test: Antitumor activity against human MCF7 cells xenografted in NOD SCID gamma mouse assessed as change in tumor volume at 5 mg, sc administered once in a week for 48 days post tumor implantation measured 7 hrs post last dose; format: functional
Mus musculus [39] = test: Downregulation of progesterone receptor mRNA level in NOD SCID gamma mouse xenografted with human MCF7 cells at 5 mg, sc administered once in a week for 48 days post tumor implantation measured 7 hrs post last dose by RT-PCR method; format: functional, organism-based
Mus musculus [40] = test: In vivo inhibition of ER protein level in NOD SCID gamma mouse xenografted with human MCF7 cells at 5 mg, sc administered once in a week for 48 days post tumor implantation measured 7 hrs post last dose by Western blot method relative to control; format: functional

## CC(F)(F)c1cc(F)ccc1-c1sc2cc(O)ccc2c1Oc1ccc(/C=C/C(=O)O)cc1 [LSZ-102]
[1]
  clearance: 28 mL/min/kg
[2]
  clearance: 19 mL/min/kg
[3]
  bioavailability: 33%
[4]
  Cmax: 492 nM
[5]
  bioavailability: 12%
MCF7 [6]
  IC50: 1.7 nM
MCF7 [7]
  T/C: 2.4%
[8]
  AUC at 456 h: 3.23 µM·h
[9]
  Cmax: 1070 nM
Mus musculus [10]
  Activity: Active
Mus musculus [11]
  inhibition in vivo at 20 mg/kg: 63%
Rattus norvegicus [12]
  Cmax/dose: 240 nM
Rattus norvegicus [13]
  AUCt/dose: 1849 nM·h
Rattus norvegicus [14]
  AUCt/dose: 620 nM·h
[15]
  Vd: 0.9 L/kg
[16]
  half-life: 1.4 h
Rattus norvegicus [17]
  Cmax/dose: 1259 nM
Rattus norvegicus [18]
  AUCt/dose: 2117 nM·h
Rattus norvegicus [19]
  Cmax/dose: 513 nM
Rattus norvegicus [20]
  AUCt/dose: 1940 nM·h
Rattus norvegicus [21]
  Cmax/dose: 334 nM
Rattus norvegicus [22]
  AUCt/dose: 3405 nM·h
Canis familiaris [23]
  Cmax/dose: 123 nM
[24]
  bioavailability: 12%
[25]
  half-life: 4.1 h
[26]
  clearance: 5 mL/min/kg
Canis familiaris [27]
  AUCt/dose: 962 nM·h
[28]
  Vd: 0.3 L/kg
Canis familiaris [29]
  AUCt/dose: 7713 nM·h
Canis familiaris [30]
  CL: 15%
Canis familiaris [31]
  Cmax/dose: 268 nM
Canis familiaris [32]
  AUCt/dose: 624 nM·h
[33]
  AUC: 9.62 µM·h

## NC(=O)/C=C/c1ccc(Oc2c(-c3ccc(O)cc3)sc3cc(O)ccc23)cc1
[34]
  solubility thermodynamic at 16 h, 1000 µM: < 5 µM

## Cc1cc(-c2sc3cc(O)ccc3c2Oc2ccc(/C=C/C(=O)O)cc2)ccc1O
[1]
  clearance: 46 mL/min/kg
[4]
  Cmax: 46 nM
[5]
  bioavailability: 2%

## CC/C(=C(\c1ccccc1)c1ccc(OCCN(C)C)cc1)c1ccccc1 [TAMOXIFEN]
MCF7 [35]
  T/C: 24%
Mus musculus [36]
  Activity: Active

## CC/C(=C(\c1ccc(O)cc1)c1ccc(OCCN(C)C)cc1)c1ccccc1 [AFIMOXIFENE]
MCF7 [6]
  IC50: 9.9 nM

## Cn1cnc(/C=C/c2ccc(Oc3c(-c4ccc(O)cc4)sc4cc(O)ccc34)cc2)c1
[34]
  solubility thermodynamic at 16 h, 1000 µM: 9 µM (≈ 3.96 µg/mL)

## CC(C)c1ccccc1-c1sc2cc(O)ccc2c1Oc1ccc(/C=C/C(=O)O)cc1
[1]
  clearance: 15 mL/min/kg
[4]
  Cmax: 1180 nM
[5]
  bioavailability: 13%

## O=C(O)/C=C/c1ccc(Oc2c(-c3ccc(F)cc3)sc3cc(O)ccc23)cc1
[1]
  clearance: 22 mL/min/kg
Estrogen receptor
  IC50: 1820 nM
[2]
  clearance: 24 mL/min/kg
[37]
  Cmax: 847 nM
[3]
  bioavailability: 33%
[4]
  Cmax: 505 nM
[5]
  bioavailability: 19%

## C[C@]12CC[C@@H]3c4ccc(O)cc4C[C@@H](CCCCCCCCC[S+]([O-])CCCC(F)(F)C(F)(F)F)[C@H]3[C@@H]1CC[C@@H]2O (stereo partly drawn) [FULVESTRANT]
MCF7 [38]
  T/C: 24%
Mus musculus [39]
  Activity: Active
Mus musculus [40]
  inhibition (INH): 67%

## CC(F)(F)c1ccccc1-c1sc2cc(O)ccc2c1Oc1ccc(/C=C/C(=O)O)cc1
[1]
  clearance: 14 mL/min/kg
[4]
  Cmax: 187 nM
[5]
  bioavailability: 5%

## CNC(=O)/C=C/c1ccc(Oc2c(-c3ccc(O)cc3)sc3cc(O)ccc23)cc1
[34]
  solubility thermodynamic at 16 h, 1000 µM: < 5 µM
